Reference: patent publication US20240425478A1, “CYCLOPENTYLPYRAZOLE CDK2 INHIBITORS” (Genentech, Inc., priority 2021, published 2024)
Where two headings read alike, the source gives them in different places.

Tests used:
[1] = biological target: T1, Cyclin Dependent Kinase 1/Cyclin A2 (CDK1-cycA2) (Homo sapiens, UniProt P06493); test: CDK1-cycA2 TR-FRET (Lance) enzyme assay; format: biochemical; details: for Ki: Table O, enzymatic assay; for FS CDK1/CDK2: fold selectivity, enzymatic Ki ratio
T1 construct: purchased ProQinase 0134-0054-1
Procedure, shortened: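 TR-FRET (Lance) detection of phospho-4E-BP1 with a europium-labelled antibody after EDTA quench (15 mM final); signal taken as acceptor/donor ratio. Enzyme and compound were pre-incubated 30 min in HEPES pH 7.5 buffer with MgCl2, TCEP, BGG and Brij 35. Ki derived by Morrison fit.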

[2] = tested on: SKOV-3 (ATCC HTB-77); test: SKOV-3 EdU incorporation cell proliferation assay (CDK4/6-dependent); format: cell-based; details: for IC50: Homo sapiens, cellular assay, read-out: CDK4/6 SKOV-3 IC50; for selectivity for CDK2 over CDK4 compared with Comparator E: SKOV-3/OVISE fold-selectivity cellular assay data; for FS SKOV-3/OVISE: fold selectivity, cellular IC50 ratio
Procedure, shortened: (§1)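 EdU incorporation (0.5 μM final, last 8 h) follows a 16 h compound exposure at 37 °C, 5% CO2 in RPMI plus 10% FBS, 0.5% DMSO. After fixation, imaging scores EdU-positive cells; a 4-parameter logistic fit of that fraction gives IC50.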

[3] = biological target: T2, Cyclin Dependent Kinase 4/Cyclin D3 (CDK4-cycD3) (Homo sapiens, UniProt P11802); test: CDK4-cycD3 TR-FRET (LANCE) enzyme assay; format: biochemical; details: for Ki: Table O, enzymatic assay; for FS CDK4/CDK2: fold selectivity, enzymatic Ki ratio
T2 construct: purchased Carna Biosciences 04-105
Procedure, shortened: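 Compound dose responses pre-incubated 30 min with enzyme mix in 50 mM HEPES pH 7.5, 10 mM MgCl2, 2 mM TCEP, 0.05% BGG, 0.01% Brij 35. Reaction quenched with EDTA (15 mM final); Eu-anti-phospho-4E-BP1 TR-FRET detection, acceptor/donor ratio. Ki derived by Morrison equation.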

[4] = tested on: OVISE (JCRB1043, CCNE1-amplified); test: OVISE EdU incorporation cell proliferation assay (CDK2-dependent); format: cell-based; details: for CDK2 cell potency compared with Comparator E: CDK2 OVISE cellular assay data; for IC50 / FS SKOV-3/OVISE / FS p-H3/OVISE: Table O; for IC50: cellular assay, read-out: CDK2 OVISE IC50; for FS SKOV-3/OVISE / FS p-H3/OVISE: fold selectivity; for FS SKOV-3/OVISE: cellular SKOV-3 IC50 over OVISE IC50; for FS p-H3/OVISE: cellular p-H3 IC50 over OVISE IC50; for CDK2 OVISE IC50 fold change in potency versus Comparator D: Table R; for CDK2 OVISE IC50 fold change in potency versus Comparator D / CDK2 OVISE IC50 fold change in potency versus Comparator E: in brackets after OVISE IC50; for CDK2 OVISE IC50 fold change in potency versus Comparator E: Table S
Procedure, shortened: as §1

[5] = tested on: HCT116 cells; test: p-H3 HCT-116 mitotic release cell proliferation assay (cellular CDK1); format: cell-based; details: Homo sapiens, HCT-116; Table O, cellular assay; read-out: CDK1 p-H3 IC50
Procedure, shortened: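 Phospho-Histone H3 (Ser10) in lysates was quantified by a two-antibody HTRF FRET read (≥2 h, room temperature). Before this, HCT116 cells held in mitosis by 16 h of 500 nM nocodazole were treated with compound for 4 h at 37 °C, 0.1% DMSO.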

[6] = biological target: T3, Cyclin Dependent Kinase 2/Cyclin E1 (CDK2-cycE1) (Homo sapiens, UniProt P24941); test: CDK2-cycE1 TR-FRET (LANCE) enzyme assay; format: biochemical; details: for FS CDK1/CDK2 / FS CDK4/CDK2: fold selectivity; for FS CDK1/CDK2: enzymatic CDK1 Ki over CDK2 Ki; for FS CDK4/CDK2: enzymatic CDK4 Ki over CDK2 Ki; for CDK2 Ki fold change in potency versus Comparator D / CDK2 Ki fold change in potency versus Comparator E: in brackets after CDK2 Ki
T3 construct: purchased ProQinase 0050-0055-1
Procedure, shortened: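 Kinase reaction buffer: 50 mM HEPES pH 7.5, 10 mM MgCl2, 2 mM TCEP, 0.05% BGG, 0.01% Brij 35, with 30 min compound–enzyme pre-incubation.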

[7] = Table O, enzymatic assay, read-out: CDK2 Ki
[8] = Table R, enzymatic assay, read-out: CDK2 Ki
[9] = Table S, enzymatic assay, read-out: CDK2 Ki

T2 sequence (P11802 whole entry): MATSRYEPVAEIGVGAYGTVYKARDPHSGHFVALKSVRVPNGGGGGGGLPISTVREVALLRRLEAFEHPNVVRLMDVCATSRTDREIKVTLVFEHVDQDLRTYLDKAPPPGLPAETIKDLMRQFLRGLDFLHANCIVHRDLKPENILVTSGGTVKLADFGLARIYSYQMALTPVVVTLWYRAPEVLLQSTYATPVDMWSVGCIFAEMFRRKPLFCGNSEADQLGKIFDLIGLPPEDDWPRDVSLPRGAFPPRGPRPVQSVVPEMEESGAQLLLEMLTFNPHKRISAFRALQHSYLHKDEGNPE
T2 sequence (P30281 whole entry partner): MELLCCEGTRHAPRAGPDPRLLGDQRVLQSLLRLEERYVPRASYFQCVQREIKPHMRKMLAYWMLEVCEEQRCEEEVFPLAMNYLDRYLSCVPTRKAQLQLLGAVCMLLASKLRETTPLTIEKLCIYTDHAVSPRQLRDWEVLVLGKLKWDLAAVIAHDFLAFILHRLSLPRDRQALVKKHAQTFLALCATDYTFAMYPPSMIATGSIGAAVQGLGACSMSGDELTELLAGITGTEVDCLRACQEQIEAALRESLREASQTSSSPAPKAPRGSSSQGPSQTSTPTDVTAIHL
T1 sequence (P06493 whole entry): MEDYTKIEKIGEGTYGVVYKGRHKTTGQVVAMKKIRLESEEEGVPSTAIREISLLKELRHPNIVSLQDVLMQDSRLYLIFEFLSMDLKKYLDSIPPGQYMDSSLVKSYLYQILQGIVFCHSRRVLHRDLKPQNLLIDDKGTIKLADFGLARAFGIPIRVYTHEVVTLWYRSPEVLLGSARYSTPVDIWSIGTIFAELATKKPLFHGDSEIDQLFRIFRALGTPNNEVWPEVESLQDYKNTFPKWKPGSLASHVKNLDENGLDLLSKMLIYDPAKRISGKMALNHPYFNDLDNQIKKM
T1 sequence (P20248 whole entry partner): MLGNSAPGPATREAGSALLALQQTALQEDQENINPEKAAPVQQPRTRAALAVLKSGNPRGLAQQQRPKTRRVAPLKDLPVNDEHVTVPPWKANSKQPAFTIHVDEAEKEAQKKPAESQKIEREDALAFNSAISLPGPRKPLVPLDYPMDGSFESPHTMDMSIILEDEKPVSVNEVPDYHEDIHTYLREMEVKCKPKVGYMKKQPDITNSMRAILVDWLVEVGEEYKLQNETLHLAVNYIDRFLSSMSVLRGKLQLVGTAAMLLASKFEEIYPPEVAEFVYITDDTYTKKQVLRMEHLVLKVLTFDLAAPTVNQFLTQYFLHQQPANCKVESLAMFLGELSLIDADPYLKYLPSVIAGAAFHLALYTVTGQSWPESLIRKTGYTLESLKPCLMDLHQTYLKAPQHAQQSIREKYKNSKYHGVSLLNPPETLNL

| Compound | Ki [1] [nM] | FS CDK1/CDK2 increased over Comparator D, (+) sign ([1]; Table R) | FS CDK1/CDK2 ([1]; Table R) | FS CDK1/CDK2 ([1]; Table S) | IC50 ([2]; SK-OV-3, Table O) [nM] | FS SKOV-3/OVISE increased over Comparator D, (+) sign ([2]; Table R) | FS SKOV-3/OVISE ([2]; Table R) | FS SKOV-3/OVISE ([2]; Table S) | Ki [3] [nM] | FS CDK4/CDK2 increased over Comparator D, (+) sign ([3]; Table R) | FS CDK4/CDK2 ([3]; Table R) | FS CDK4/CDK2 ([3]; Table S) | IC50 [4] [nM] | FS SKOV-3/OVISE [4] | FS p-H3/OVISE [4] | CDK2 OVISE IC50 fold change in potency versus Comparator D [4] [fold] | CDK2 OVISE IC50 fold change in potency versus Comparator E [4] [fold] | IC50 [5] [nM] | Ki [6, 7] [nM] | FS CDK1/CDK2 ([6]; Table O) | further results |
| --- | --- | --- | --- | --- | --- | --- | --- | --- | --- | --- | --- | --- | --- | --- | --- | --- | --- | --- | --- | --- | --- |
| Cc1cc(Nc2cc([C@H]3CC[C@@H](OC(=O)NC(C)(C)C)C3)[nH]n2)nn(C)c1=O [Example 4D, (1R,3S)-3-(3-((1,5-dimethyl-6-oxo-1,6-dihydropyridazin-3-yl)amino)-1H-pyrazol-5-yl)cyclopentyl tert-butylcarbamate] | 3.7 | (+) | > 59 | >59 | 1500 | (+) | 58 | 58 | 39 | (+) | > 620 | > 620 | 26 | 58 | 0.35 | 146 | 6.5 | 9.2 | < 0.1 | >59 | selectivity for CDK2 over CDK4 compared with Comparator E [2]: increase in selectivity for CDK2 over CDK4; FS SKOV-3/OVISE increased over Comparator E, (+) sign ([2]; Table S): (+); FS CDK4/CDK2 increased over Comparator E, (+) sign ([3]; Table S): (+); CDK2 cell potency compared with Comparator E [4]: more potent CDK2 cell inhibitors compared to Comparator E; FS CDK4/CDK2 ([6]; Table O): >620; Ki [6, 8]: < 0.1 nM; CDK2 Ki fold change in potency versus Comparator D ([6]; Table R): 27 fold; Ki [6, 9]: < 0.1 nM; CDK2 Ki fold change in potency versus Comparator E ([6]; Table S): 5.2 fold; Ki ([6]; read-out: CDK2 activity / potency (enzymatic assay)): ≤ 1 nM |
| CNC(=O)c1ccc(Nc2cc([C@H]3CC[C@@H](OC(=O)NC(C)(C)C)C3)[nH]n2)nc1 [Example 4E, (1R,3S)-3-(3-((5-(methylcarbamoyl)pyridin-2-yl)amino)-1H-pyrazol-5-yl)cyclopentyl tert-butylcarbamate] | 75 | (+) | 47 | 47 | 2600 | (+) | 27 | 27 | 84 | (+) | 53 | 53 | 96 | 27 | 1.1 | 40 | 1.8 | 100 | 1.6 | 47 | IC50 ([2]; SK-OV-3, Table R): 2600 nM; IC50 ([2]; SK-OV-3, Table S): 2600 nM; selectivity for CDK2 over CDK4 compared with Comparator E [2]: increase in selectivity for CDK2 over CDK4; FS SKOV-3/OVISE increased over Comparator E, (+) sign ([2]; Table S): (+); FS CDK4/CDK2 increased over Comparator E, (+) sign ([3]; Table S): (+); CDK2 cell potency compared with Comparator E [4]: more potent CDK2 cell inhibitors compared to Comparator E; FS CDK4/CDK2 ([6]; Table O): 53; Ki [6, 8]: 1.6 nM; CDK2 Ki fold change in potency versus Comparator D ([6]; Table R): 1.7 fold; Ki [6, 9]: 1.6 nM; CDK2 Ki fold change in potency versus Comparator E ([6]; Table S): 0.3 fold |
| CNC(=O)c1ccnc(Nc2cc([C@H]3CC[C@@H](OC(=O)NC(C)(C)C)C3)[nH]n2)c1 [Example 4F, (1R,3S)-3-(3-((4-(methylcarbamoyl)pyridin-2-yl)amino)-1H-pyrazol-5-yl)cyclopentyl tert-butylcarbamate] | 52 | (+) | 21 | 21 | 1700 | (+) | 8.9 | 8.9 | 37 | (+) | 15 | 15 | 190 | 8.9 | 0.35 | 20 | 0.9 | 66 | 2.5 | 21 | IC50 ([2]; SK-OV-3, Table R): 1700 nM; IC50 ([2]; SK-OV-3, Table S): 1700 nM; FS CDK4/CDK2 ([6]; Table O): 15; Ki [6, 8]: 2.5 nM; CDK2 Ki fold change in potency versus Comparator D ([6]; Table R): 1.1 fold; Ki [6, 9]: 2.5 nM; CDK2 Ki fold change in potency versus Comparator E ([6]; Table S): 0.2 fold |
| CC(C)(C)NC(=O)O[C@@H]1CC[C@H](c2cc(Nc3ccccn3)n[nH]2)C1 [Example 4G, (1R,3S)-3-(3-(pyridin-2-ylamino)-1H-pyrazol-5-yl)cyclopentyl tert-butylcarbamate] | 75 | (+) | 44 | 44 | 1500 | (+) | 6.3 | 6.3 | 27 | (+) | 16 | 16 | 240 | 6.3 | 1.0 | 16 | 0.7 | 240 | 1.7 | 44 | IC50 ([2]; SK-OV-3, Table R): 1500 nM; IC50 ([2]; SK-OV-3, Table S): 1500 nM; FS CDK4/CDK2 ([6]; Table O): 16; Ki [6, 8]: 1.7 nM; CDK2 Ki fold change in potency versus Comparator D ([6]; Table R): 1.6 fold; Ki [6, 9]: 1.7 nM; CDK2 Ki fold change in potency versus Comparator E ([6]; Table S): 0.3 fold |
